Data: patent publication US8536332B2, “Modulating signal transduction pathways with substituted pyridol [2,3-b] pyrazines” (Aeterna Zentaris GmbH, priority 2007, dated 2013)

Experiments:
p110alpha H107R = settings: cited from earlier work
MDA-MB468 = experiment: XTT assay, anti-proliferative activity, MDA-MB468; assay type: cell-based; settings: Homo sapiens, MDA-MB-468; 45 h incubation
Procedure: (§1) The principle of this test is based on the intracellular reduction of the tetrazolium dye XTT (sodium 3′-[1-(phenylaminocarbonyl)-3,4-tetrazolium]bis(4-methoxy-6-nitro)benzenesulphonic acid, Sigma) to a formazan dye by mitochondrial dehydrogenases. The dye is formed only by metabolically active cells. Its photometrically measurable intensity is a quantitative indicator for the presence of living cells. The reduction in the dye formation as a result of incubation of the cells with substances serves as a parameter for the anti-proliferative activity.
(§2) The tumour cell lines (ATCC) were seeded in 96-well microtitre plates in a defined cell count (5000 cells/well for Hct116; 10000 cells/well for MDA MB468), and incubated overnight at 37° C., 5% CO2 and 95% air humidity. The test substances were made up as stock solutions (10 mM) in DMSO. […] The cell plates were then incubated for 45 h at 37° C., 5% CO2 and 95% air humidity.
(§3) For the detection reaction, the XTT substrate was mixed with PMS (N-methyldibenzopyrazine methylsulphate, Sigma) and added to the cells, to result in a final concentration of 325 μg of XTT/ml and 2.5 μg PMS/ml. The mixture was then incubated for 3 h at 37° C., 95% air humidity. Subsequently the formazan salt formed by cellular dehydrogenases was quantified at an absorption of 490 nm.
(§4) The evaluation of the % inhibition values was done by means of the following formula from the values for the optical densities measured in each case at 490 nm:
(§5) The controls were determined 8 fold, the substance samples 2 fold. 0% control contained no cells and the 100% control contained no test substance. The EC50 values were determined with GraphPadPrism.

Phospho-p90RSK (S380) = experiment: Cellular substrate phosphorylation (Western blotting), Erk →pRsk; assay type: cell-based, human; settings: for inhibition at 50 µM: Homo sapiens, 5 h; for inhibition of phospho-Rsk / Raf-Mek-Erk pathway, in words: Western blotting, concentrations of 5-50 μM
Procedure: (§6) This method enables a statement of whether the kinase modulator investigated achieves the desired effect in a cellular context too, i.e., in this case, a substrate protein downstream of the target kinase is examined for its phosphorylation status. To this end, the cells incubated with substance are lysed and the overall protein is separated on a reducing polyacrylamide gel. Subsequently, the proteins are transferred to a PVDF membrane by Western blotting and the substrate bands sought are made visible with specific antibodies and a suitable detection method. The substrate proteins down-stream of the target kinases are detected simultaneously with an anti-phospho antibody which is specific in each case and a total antibody which recognizes the substrate total protein. The duplex technology of the ODYSSEY imager (LiCOR) enables this simultaneous measurement. The intensity of the total substrate bands is employed to normalize and quantify the phosphorylation inhibition or activation.
(§7) Suitable tumor cell lines (e.g. BxPC3, Hct116 or MDA MB468) were seeded into 6-well microtitre plates in a defined cell count (e.g. 350 000 cells/well for BxPC3 and Hct116) in the particular standard complete media and then incubated overnight at 37° C., 5% CO2 and 95% air humidity. Afterwards, the cells were incubated for 24 h under serum-reduced conditions, i.e. in the particular medium except at only 0.25% serum. The test substances were made up as stock solutions (10 mM) in DMSO and incubated with the cells at final concentrations of 5, 15.8 and 50 μM for 5 h. This was followed by cell lysis in 25 mM Tris, 150 mM NaCl, 10 mM sodium pyrophosphate, 2 mM EGTA, 25 mM beta-glycerophosphate, 25 mM NaF, 10% glycerol, 0.75% NP-40, 100 μM NaVO4 buffer. After protein quantification using the BCA (bicinchonic acid protein assay kit, Sigma) assay, amounts of protein of about 20 μg per track were separated on a Lämmli polyacrylamide gel and then transferred onto a PVDF membrane (Millipore) by semi-dry Western blotting at 0.8 mA/cm^2 for 1 h. This was followed by prehybridization of the membrane for 1 hour in I-block reagent (Applied Biosystems) and overnight simultaneous incubation with the specific antibodies. […] After the membrane had been washed, the secondary antibodies were incubated with anti-rabbit IR Dye 800 (#611-732-127, Rockland) for the phospho antibodies and anti-goat Alexa Fluor 680 (#A-21081, […]) for the total protein antibodies. After incubation for 30 min at room temperature in the dark, the hybridization of the detection antibody was detected on the membrane by scanning in an ODYSSEY imager (LiCOR).

Erk2 = molecular target: T1, Erk2 (Mus musculus, UniProt P63085); experiment: Cell-free kinase assay Erk2-ALPHA; assay type: biochemical, human; settings: 10 μM ATP
T1 construct: purchased Upstate #14-173
T1 sequence (P63085 whole entry): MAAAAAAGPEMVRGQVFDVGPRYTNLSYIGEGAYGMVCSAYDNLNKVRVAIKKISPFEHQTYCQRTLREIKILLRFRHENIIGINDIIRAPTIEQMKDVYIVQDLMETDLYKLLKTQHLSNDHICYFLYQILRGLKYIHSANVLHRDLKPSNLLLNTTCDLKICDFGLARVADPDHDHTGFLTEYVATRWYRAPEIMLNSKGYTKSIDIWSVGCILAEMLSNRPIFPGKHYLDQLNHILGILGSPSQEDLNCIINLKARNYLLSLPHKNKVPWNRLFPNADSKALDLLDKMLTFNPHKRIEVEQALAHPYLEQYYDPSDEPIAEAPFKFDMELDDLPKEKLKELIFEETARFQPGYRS
Procedure: (§8) The inhibitory effect of the compounds of the invention was tested on various human serine/threonine kinases, tyrosine kinases and lipid kinases in enzymatic assays. Recombinant human kinases, for example PI3Kalpha, -beta, -gamma, -delta, Erk2, p38alpha, p38gamma, Jnk1, Jnk2 and others were used, in some cases as full-length kinases, in some cases as truncated fragments—but at least consisting of the functional kinase domains. The commercial kinase proteins (Proqinase, Upstate) were used as recombinant fusion proteins with GST (glutathione S-transferase) tag or His tag. Depending on the substrate type, the different kinase reactions were quantified by suitable ALPHA™ beads (PerkinElmer).
(§9) The kinase assays for PI3K and Erk are described in detail and selected test results are cited below. […] Subsequently, the kinase reaction was stopped by adding the ALPHA bead mix (10 μg/ml, #6760603/PerkinElmer), preincubated with 1 nM GST:Grp1 fusion protein (Upstate) and […] (#C-39B6/Echelon) in 50 mM Hepes, 50 mM NaCl, 50 mM EDTA and 0.1% BSA, and left to stand overnight. • b) Erk2-ALPHA: The test substance, 0.625 ng of Erk2 (#14-173, Upstate), 10 μM ATP and 15 nM biotinylated MBP (myelin basic protein) substrate were incubated on a 384-well Optiplate (Perkin Elmer) in a volume of 15 μl for 1 h in 25 mM Tris, 10 mM MgCl2, 0.1% Tween-20, 100 μM NaVO4, 2 mM DTT at pH 7.5. The kinase reaction was stopped by adding 10 μl of the ALPHA bead mix (10 μg/ml, #6760617/PerkinElmer), pre-incubated with anti-phospho MBP antibody (320 pM, #05-429/Upstate), in 25 mM Tris, 200 mM NaCl, 100 mM EDTA and 0.3% BSA, and left to stand overnight.
(§10) The luminiscence was detected the next morning in a Fusion™ alpha instrument (Perkin Elmer).
(§11) The calculation of % inhibition values per substance concentration was done by means of the following formula from the raw data determined in the Fusion™ alpha:
(§12) The controls were determined 8 fold and the substance samples 2 fold. 0% control contained neither any ATP nor any substrate. The 100% control contained no test substance. The IC50 values were determined with GraphPadPrism.

PI3Kalpha = molecular target: T2, PI3Kalpha (Homo sapiens, UniProt P42336); experiment: Cell-free kinase assay PI3K-ALPHA; assay type: biochemical
T2 construct: purchased Upstate #14-602
T2 sequence (P42336 whole entry): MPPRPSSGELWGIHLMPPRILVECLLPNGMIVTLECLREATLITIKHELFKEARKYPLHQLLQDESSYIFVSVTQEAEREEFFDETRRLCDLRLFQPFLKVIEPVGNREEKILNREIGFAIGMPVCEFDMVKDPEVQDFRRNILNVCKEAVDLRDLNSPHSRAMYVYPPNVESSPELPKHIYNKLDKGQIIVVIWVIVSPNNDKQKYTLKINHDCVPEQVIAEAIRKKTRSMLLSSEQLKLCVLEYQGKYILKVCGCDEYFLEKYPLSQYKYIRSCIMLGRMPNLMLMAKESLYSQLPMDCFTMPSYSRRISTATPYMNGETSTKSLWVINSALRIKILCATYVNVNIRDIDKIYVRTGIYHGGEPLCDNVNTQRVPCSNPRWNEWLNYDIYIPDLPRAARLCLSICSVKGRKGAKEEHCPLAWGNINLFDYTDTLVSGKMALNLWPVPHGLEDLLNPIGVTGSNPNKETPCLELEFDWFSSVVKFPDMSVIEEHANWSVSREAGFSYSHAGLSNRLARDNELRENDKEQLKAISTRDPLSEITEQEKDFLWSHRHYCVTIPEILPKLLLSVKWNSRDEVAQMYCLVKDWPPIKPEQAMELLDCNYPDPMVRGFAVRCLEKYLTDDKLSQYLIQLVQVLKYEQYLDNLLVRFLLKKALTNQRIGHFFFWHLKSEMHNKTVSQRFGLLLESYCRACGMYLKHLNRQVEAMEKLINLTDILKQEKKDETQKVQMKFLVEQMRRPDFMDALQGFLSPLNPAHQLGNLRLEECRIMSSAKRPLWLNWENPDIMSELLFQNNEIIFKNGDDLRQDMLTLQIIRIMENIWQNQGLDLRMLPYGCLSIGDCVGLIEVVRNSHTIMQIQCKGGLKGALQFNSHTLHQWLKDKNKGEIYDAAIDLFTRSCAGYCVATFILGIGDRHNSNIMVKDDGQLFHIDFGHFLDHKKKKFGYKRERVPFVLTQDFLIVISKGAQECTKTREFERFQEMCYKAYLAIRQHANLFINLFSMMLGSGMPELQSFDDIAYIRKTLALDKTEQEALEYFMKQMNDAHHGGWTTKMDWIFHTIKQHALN
T2 sequence (P27986 whole entry partner): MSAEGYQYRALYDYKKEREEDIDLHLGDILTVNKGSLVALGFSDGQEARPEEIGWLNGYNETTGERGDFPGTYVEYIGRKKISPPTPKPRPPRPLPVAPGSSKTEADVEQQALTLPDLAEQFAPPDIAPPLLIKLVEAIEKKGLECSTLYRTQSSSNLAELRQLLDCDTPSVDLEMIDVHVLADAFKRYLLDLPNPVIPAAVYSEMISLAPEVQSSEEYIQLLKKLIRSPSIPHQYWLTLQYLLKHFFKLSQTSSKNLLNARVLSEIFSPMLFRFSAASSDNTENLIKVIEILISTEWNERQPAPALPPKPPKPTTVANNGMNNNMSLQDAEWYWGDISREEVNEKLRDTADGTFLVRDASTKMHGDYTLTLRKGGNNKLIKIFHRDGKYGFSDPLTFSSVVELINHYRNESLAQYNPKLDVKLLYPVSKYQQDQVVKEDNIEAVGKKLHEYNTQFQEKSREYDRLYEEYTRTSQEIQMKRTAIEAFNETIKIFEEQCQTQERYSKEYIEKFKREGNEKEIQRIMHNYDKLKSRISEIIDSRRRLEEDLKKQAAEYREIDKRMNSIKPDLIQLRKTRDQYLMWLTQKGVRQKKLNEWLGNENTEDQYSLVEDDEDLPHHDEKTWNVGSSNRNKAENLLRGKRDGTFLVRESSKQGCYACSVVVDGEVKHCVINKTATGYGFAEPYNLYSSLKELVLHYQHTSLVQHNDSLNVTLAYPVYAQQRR
Procedure: as §8, §9, §10, §11, §12

p38alpha = p38alpha (Homo sapiens, UniProt Q16539); experiment: Cell-free kinase assay (ALPHA technology) p38alpha; assay type: biochemical; settings: 10 μM ATP
p38alpha, sequence (Q16539 whole entry): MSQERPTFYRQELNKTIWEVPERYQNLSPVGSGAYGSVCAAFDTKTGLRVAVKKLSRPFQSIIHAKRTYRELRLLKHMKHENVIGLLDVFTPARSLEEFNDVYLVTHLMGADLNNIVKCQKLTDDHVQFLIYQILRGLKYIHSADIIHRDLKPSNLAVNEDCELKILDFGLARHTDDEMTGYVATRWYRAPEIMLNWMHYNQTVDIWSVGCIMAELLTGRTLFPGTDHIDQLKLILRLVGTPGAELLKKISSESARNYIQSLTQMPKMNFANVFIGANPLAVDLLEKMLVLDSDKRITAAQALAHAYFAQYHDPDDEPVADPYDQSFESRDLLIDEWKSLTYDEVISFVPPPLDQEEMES
Procedure: as §8, §9, §10, §11, §12

Hct116 = experiment: XTT assay, anti-proliferative activity, Hct116; assay type: cell-based; settings: Homo sapiens, HCT-116; 45 h incubation
Procedure: as §1, §2, §3, §4, §5

Jnk1 + Jnk2 = test system: T3, Jnk1 + Jnk2; experiment: Cell-free kinase assay (ALPHA technology) Jnk1 + Jnk2; assay type: biochemical, human; settings: 10 μM ATP
T3 construct: fused on or other part: GST tag or His tag (commercial recombinant fusion proteins from Proqinase or Upstate)
Procedure: as §8, §9, §10, §11, §12

Phospho-Akt (Ser 473) = experiment: Cellular substrate phosphorylation (Western blotting), PI3K →pAkt; assay type: cell-based, human; settings: for inhibition at 50 µM: Homo sapiens, 5 h; for inhibition of cellular phospho-Akt / PI3K-Akt pathway, in words: Western blotting, concentrations of 5-50 μM
Procedure: as §6, §7

[1] = Cell-free kinase assay Erk2-ALPHA; assay type: biochemical, human; settings: cell-free kinase assay; MAPK = Erk2, p38alpha, Jnk1+Jnk2 of Table 1
Procedure: as §8, §9, §10, §11, §12

SMILES	EC50 (MDA-MB468)	IC50 (Erk2)	PI3K inhibition, in words (PI3Kalpha)	IC50 (p38alpha)	EC50 (Hct116)	IC50 (Jnk1 + Jnk2)	melting point	Erk2 / MAPK inhibition, in words [1]	IC50 (p110alpha H107R)	inhibition at 50 µM (Phospho-p90RSK (S380))	inhibition of phospho-Rsk / Raf-Mek-Erk pathway, in words (Phospho-p90RSK (S380))	inhibition at 50 µM (Phospho-Akt (Ser 473))	inhibition of cellular phospho-Akt / PI3K-Akt pathway, in words (Phospho-Akt (Ser 473))
Cn1c(=O)n(-c2ccc(C(C)(C)C#N)cc2)c2c3cc(-c4cnc5ccccc5c4)ccc3ncc21 [BEZ-235]	–	–	–	–	–	–	–	–	0.018 µM	–	–	–	–
CCNC(=O)Nc1ccc2ncc(-c3ccc(OC)c(O)c3)nc2n1 [Compound 46, 1-Ethyl-3-[3-(3-hydroxy-4-methoxy-phenyl)-pyrido[2,3-b]pyrazin-6-yl]-urea]	< 10 µM	< 0.5 µM	inhibition of PI3K	> 100 µM	< 10 µM	< 1 µM	> 270 °C	inhibition of PI3K and Erk2	–	100%	inhibit both	40%	inhibit both
CCNC(=O)Nc1ccc2ncc(Nc3ccc(O)c(C(=O)OC)c3)nc2n1 [Compound 50, 5-[6-(3-Ethyl-ureido)-pyrido[2,3-b]-pyrazin-3-ylamino]-2-hydroxy-benzoic acid methyl ester]	< 10 µM	> 100 µM	PI3K inhibition	> 100 µM	< 5 µM	> 100 µM	195 to 200 °C	no or only moderate MAPK inhibition	–	0%	do not block the Raf-Mek-Erk pathway	100%	cellular PI3K selectivity

More lines, main results first:

EC50 (MDA-MB468)	IC50 (Erk2)	PI3K inhibition, in words (PI3Kalpha)	IC50 (p38alpha)	EC50 (Hct116)	IC50 (Jnk1 + Jnk2)	melting point	Erk2 / MAPK inhibition, in words [1]	SMILES	IC50 (p110alpha H107R)	inhibition at 50 µM (Phospho-p90RSK (S380))	inhibition of phospho-Rsk / Raf-Mek-Erk pathway, in words (Phospho-p90RSK (S380))	inhibition at 50 µM (Phospho-Akt (Ser 473))	inhibition of cellular phospho-Akt / PI3K-Akt pathway, in words (Phospho-Akt (Ser 473))
< 1 µM	> 100 µM	low IC50 values against PI3K	> 100 µM	< 2 µM	> 10 µM	–	–	CCNC(=O)Nc1cnc2ccc(-c3ccc(O)c(OC)c3)nc2n1 [Compound 5, 1-Ethyl-3-[6-(4-hydroxy-3-methoxy-phenyl)-pyrido[2,3-b]pyrazin-3-yl]-urea]	–	0%	phospho-Rsk is not inhibited	100%	total inhibition of cellular phospho-Akt at compound concentrations <50 μM
< 5 µM	< 0.5 µM	inhibition of PI3K	> 100 µM	< 5 µM	< 31.6 µM	227 to 229 °C	inhibition of PI3K and Erk2	CCNC(=O)Nc1ccc2ncc(-c3ccc(OC(C)=O)c(OC)c3)nc2n1 [Compound 54, Acetic acid 4-[6-(3-ethyl-ureido)-pyrido[2,3-b]pyrazin-3-yl]-2-methoxy-phenyl ester]	–	90%	inhibit both	100%	inhibit both
< 5 µM	> 100 µM	PI3K inhibition	< 10 µM	< 5 µM	> 100 µM	243 to 246 °C	no or only moderate MAPK inhibition	CCNC(=O)Nc1ccc2ncc(Nc3ccccc3O)nc2n1 [Compound 55, 1-Ethyl-3-[3-(2-hydroxy-phenylamino)-pyrido[2,3-b]pyrazin-6-yl]-urea]	–	0%	do not block the Raf-Mek-Erk pathway	90%	cellular PI3K selectivity
< 5 µM	< 10 µM	PI3K inhibition	< 10 µM	< 10 µM	> 10 µM	270 to 273 °C	no or only moderate MAPK inhibition	CCNC(=O)Nc1ccc2ncc(Nc3cccc(O)c3)nc2n1 [Compound 56, 1-Ethyl-3-[3-(3-hydroxy-phenylamino)-pyrido[2,3-b]pyrazin-6-yl]-urea]	–	0%	do not block the Raf-Mek-Erk pathway	100%	cellular PI3K selectivity
< 5 µM	> 100 µM	PI3K inhibition	> 10 µM	< 5 µM	> 100 µM	–	no or only moderate MAPK inhibition	CCNC(=O)Nc1ccc2ncc(Nc3cccc(OC(F)F)c3)nc2n1 [Compound 73, 1-[3-(3-Difluoromethoxy-phenylamino)-pyrido[2,3-b]pyrazin-6-yl]-3-ethyl-urea]	–	–	–	–	–
